Results taken from patent US20030059797A1, “Animal model of and test for Alzheimer's disease” (priority 1999, published 2003).
Several values for one entry are separate records, joined by “and”; a condition that tells them apart may be missing. Identical values can stand only once.

What was measured:
[1] = tested on: tryptamine binding site; conditions: cited from earlier work; for binding to tryptamine site (in words): human cortical membrane preparation, Mousseau & Butterworth 1994
[2] = tested on: neuronal cell lines; conditions: Tanaka et al. 1998; cited from earlier work
[3] = tested on: mice; assay: Observation of health and behavior of tryptamine-treated mice; assay type: in vivo
Procedure: (§1) An Alzheimer's disease mouse model was obtained by using intravenous injections of male mice at 8 weeks or age- and sex-matched mice with 1-500 micrograms of tryptamine every second day for at least 2.5 weeks. In one embodiment, mice are injected with 50 micrograms of tryptamine for 4 months. However, the duration of treatment, intervals between injections and concentrations of tryptamine can be successfully varied. Control mice are injected with phosphate-buffered saline.
The tryptamine-treated mice appear to be healthy in comparison to the control mice. The treated mice are clean and fat.

[4] = tested on: human neuroblastoma SH SY5Y cell line; assay: Cultivation of SH SY5Y cells with TrpRS inhibitors; assay type: cell-based; conditions: for cell survival after cultivation with inhibitor: 50-100 μg/ml, 5 days, initial density 1×10^3 on 10-cm dishes
Procedure: The involvement of TrpRS inhibitors in neurofibrillary tangles formation was tested in the human neuroblastoma SH SY5Y cell line expressing tau. Tanaka et al., FEBS Lett. 426: 248-254 (1998). This cloned line comprises two morphologically distinct cell types: predominantly neuroblastic (bearing short neurites) and epithelial-like (lacking neurites). Biedler et al., Cancer Res. 33: 2643-2652 (1973). SH SY5Y cells were grown in 25 cm^2 flasks (TPP, Switzerland) in 5% CO2 at 37° C. in RPMI 1640 medium supplemented with 10% fetal calf serum, 100 u/ml penicillin, 100 μg/ml streptomycin, 0.25 μg/ml amphoterycin and 2 mM glutamine. The neuron/axon lines were isolated after seeding microscopically verified single […] cells.
Continuous treatment with lower concentrations of the inhibitors led to accumulation of large flattened, tightly substrate adherent epithelial-like cells lacking neurites, while the majority of neuroblasts died.
TrpRS was mainly localized in axons and to a less extent in the neuronal body and dendrites (wrs, FIG. 1e). […] In some sublines, however no neuroblasts were observed during 12 months cultivation without inhibitors (low panel, FIG. 1f).

[5] = tested on: mice; assay: Brain histology of tryptamine-treated mice (Congo Red, Gallyas silver staining); assay type: in vivo; conditions: intravenous, every second day, at least 2.5 weeks of treatment
Procedure: as §1
Immunochemical assays with control and tryptamine-treated mice. Following tryptamine treatment, the brains of the treated model mice and the control untreated mice were routinely fixed; sectioned, stained and analyzed microscopically, using commonly used well-established methods. The mouse brains were examined for Alzheimer's-like manifestations.
These manifestations were not found in the control mice.
FIG. 5 is a set of micrographs showing Congo Red staining and birefringence of sagittal sections from brains of tryptamine-treated mice. […] FIG. 6 is a set of micrographs showing silver staining of Alzheimer's neurofibrillary changes in the brain sections of tryptamine-treated mice.

[6] = tested on: mice; assay: Running on a narrow stick, tryptamine-treated mice; assay type: in vivo; conditions: individual mouse
Procedure: as §1
Behavioral tests with control and tryptamine-treated mice. Behavioral assays with control and tryptamine-treated mice included tests for movement or coordination, sense of balance, orientation, and loss of interest. The behavioral tests in which the tryptamine-treated mice were tested included (a) a test of stable sitting (following 3 months of treatment), and (b) a test of running on a narrow stick (following 3, 4 and 6 months of the treatment). […] As shown in the testing this behavior of mice is age-dependent. […] The data obtained regarding behavior of the control and tryptamine-treated mice are in good agreement with later signs of Alzheimer's disease compared with normal signs of aging (Source: Alzheimer's Disease: early warning signs and diagnostic resources. The Junior League of NYC, Inc, 1988).
The model mice were made to run on a white metallic 80 cm stick having a diameter of 1 cm stick and placed 30 cm over the surface of a platform. Data in TABLE I are: (a) lag time (time that the mice were sitting at one end of the stick before beginning to run); (b) run time; and (c) the % of the stick that the mice successfully completed.

[7] = tested on: mice; assay: Stability (balance) on narrow 1-cm stick; assay type: in vivo
Procedure: FIG. 7 is a set of tables and graphs showing measurements of the treated mice's behavior. The control and tryptamine-treated model mice were put on a narrow 1-cm diameter metallic stick. The time that mice balanced on the stick was measured in seconds. 66% of control versus 10% of treated mice kept on the stick for more than 6 seconds in the first experiment and 66% of control versus 20% of treated were for more than 13 seconds in the second experiment. Thus, the model mice were 6.6 times less balanced or coordinated than control.
FIG. 7 is a set of tables and graphs showing measurements of the treated mice's stability The control and tryptamine-treated model mice were put on a narrow 1 cm diameter metallic stick. The time of their presence on the stick was measured in seconds. […] Thus, the model mice are 6.6 times less balanced than control.

[8] = tested on: TrpRS; assay: Western blot of TrpRS in detergent-insoluble fraction of treated cells; assay type: cell-based, human; conditions: 6C10/C9 blot
Procedure: The involvement of tau and TrpRS in tryptamine-induced phenotypes was tested in extracts of control and treated cells. Triton extraction was performed as follows: Cells were lysed in 0.1 M Hepes buffer, pH 6.9, 0.5% Triton X100, 1 mM MgCl2, 0.1 mM EDTA, 2 mM EGTA, 1 mM DTT, 1 mM PMSF, 0.4 mg/ml aprotinin, 0.1 mg/ml antipain, leupeptin, pepstatin, and hemastatin, 0.1 μM okadaic acid, 10 mM sodium ortovanadate, and 50 mM sodium fluoride for 20 min in situ at room temperature. The detergent-insoluble fraction was collected with scraper and washed in the same buffer excluding inhibitors of phosphatases. The detergent-insoluble fraction was then solubilized in SDS-sample buffer at 100° C. for 5 min, and spun. […]
In the Western blot, both human recombinant ˜54 kDa and bovine ˜60 and ˜40-42 kDa (well-characterized proteolytic fragments) TrpRS reacted with 6C10/C9 and polyclonal antibodies (FIG. 3b), while poorly with 9D7. The main form and an additional high molecular weight TrpRS were induced in detergent-insoluble cytoskeleton by tryptamine treatment (right panel, FIG. 3c), whereas no difference was detected between acute-treated and pretreated cells (left and middle panels, FIG. 3c) when total extracts were analyzed. In the cytoskeleton of both treated and control cells, TrpRS was detected at a lower molecular weight than the cytoplasmic TrpRS (FIG. 3c). […]

[9] = tested on: SH SY5Y cells; assay: Tryptamine treatment of epithelial-enriched and neuron-axon SH SY5Y cells, staining and electron microscopy; assay type: cell-based, human; conditions: 20-100 μg/ml tryptamine for 6-60 days, electron microscopy
Procedure: To examine control epithelial cells, which were not pretreated with inhibitors, neuroblastic and epithelial-enriched cells were separated from one another by exploiting a marked difference in adhesive properties. Biedler et al., Cancer Res. 33: 2643-2652 (1973). The weakly adherent neuroblasts were washed out with trypsin. The selected epithelial-enriched and tryptamine-differentiated neuron-axon cells were treated with 20-100 μg/ml tryptamine for 6-60 days and then stained. […] (Mouse anti-human PHF-tau, clone AT8 against epitope containing phosphorylated Ser202 was obtained from Innogenetics (Ghent, Belgium).)
To test whether TrpRS and tau co-localize in neurofibrillary tangles, fluorescent double labeling with AT8 and anti-TrpRS was performed. In acute-treated cells, the proteins were co-localized both in I-NFT-like encircled nuclei (FIG. 2e, f, i, and j) and E-NFT-like manifestations (FIG. 2g). In the perikarya of the control pretreated or untreated epithelial cells, few if any such formations were labeled (FIG. 2h and FIG. 2k). The staining is specific. The staining was absent in the control specimens probed with secondary antibodies (FIG. 2l).
To test whether tryptamine-induced manifestations are associated with neurofilaments, the cells were prepared either as a suspension (FIG. 2m) or as a monolayer and then analyzed by electron microscopy. […]

## NCCc1c[nH]c2ccc(O)cc12 [5-hydroxytryptamine]
[1]; relative to tryptamine
  lower binding to tryptamine site than tryptamine: > 100

## COc1ccc2[nH]cc(CCN)c2c1 [5-methoxytryptamine]
[1]
  binding to tryptamine site (in words): higher binding to tryptamine site compared with 5-hydroxytryptamine

## CC(N)Cc1ccccc1 (stereo not shown) [amphetamine]
[1]
  binding to tryptamine site (in words): higher affinity for the (+)-stereo isomer compared with (−)-isomer

## C#CCN(C)[C@H](C)Cc1ccccc1 [deprenyl]
[1]
  binding to tryptamine site (in words): higher affinity for the (+)-stereo isomer compared with (−)-isomer

## C=C1[C@@H](O)[C@@H]2O[C@]3(CC[C@H](/C=C/[C@@H](C)[C@@H]4CC(C)=C[C@@]5(O[C@H](C[C@@](C)(O)C(=O)O)CC[C@H]5O)O4)O3)CC[C@H]2O[C@@H]1[C@@H](O)C[C@H](C)[C@H]1O[C@@]2(CCCCO2)CC[C@H]1C [okadaic acid]
[2]
  effect on tau and neurofibrillary tangles: results only in tau hyperphosphorylation, but not neurofibrillary tangles

## NCCc1c[nH]c2ccccc12 [tryptamine]
[3]; four months of treatment
  toxic effect: do not show any toxic effect
[3]; in contrast to control mice
  aggressive behavior: do not show aggressive behavior
[4]
  cell survival after cultivation with inhibitor: all cells have died
[4]; SH SY5Y
  relative toxicity for neuroblasts and epithelial cells: more toxic for neuroblasts than for epithelial cells
[4]; continuous treatment with lower concentrations, then cultivation without inhibitors
  neurodifferentiation of epithelial cells: induces neurodifferentiation of the epithelial cells
[5]
  Alzheimer's-like manifestations in brain sections: Senile plaques, neurofibrillary tangles, and neuropil threads and fibrils were detected
[6]; 80 cm stick, 1 cm diameter
  Run time: 2 seconds and 0 seconds (7×) and 10 seconds and 17 seconds
[6]; 80 cm stick, 1 cm diameter, time sitting at one end before beginning to run
  Lag time: 50 seconds and 47 seconds and 11 seconds and 17 seconds and 13 seconds and 40 seconds and 3 seconds (2×) and 9 seconds and 15 seconds
[6]; % of the stick successfully completed
  % of the way: 40% and 0% (7×) and 20% and 50%
[7]; first experiment, control 66%
  % of treated mice kept on the stick for more than 6 seconds: 10%
[7]; second experiment, control 66%
  % of treated mice kept on the stick for more than 13 seconds: 20%
[7]; treated versus control mice
  times less balanced than control: 6.6 times
[8]
  expression of cytoskeleton TrpRS forms: induces high expression of cytoskeleton TrpRS forms
[1]
  binding to tryptamine site (in words): most potent inhibitor
[9]
  neurofibrillary tangles in treated cells: numerous neurofibrillary tangles were found

## N[C@@H](Cc1c[nH]c2ccccc12)C(=O)O [tryptophan]
[1]
  binding to tryptamine site (in words): dramatically lower binding to trypatmine site than tryptamine

## N[C@H](CO)Cc1c[nH]c2ccccc12 [tryptophanol]
[4]
  cell survival after cultivation with inhibitor: all cells have died
